Experimental data published in US20050004029A1, “Methods and compositions for treating vascular leak using hepatocyte growth factor” (priority 2001, published 2005).

What was measured:
[1] = tested on: Bovine Pulmonary Artery Endothelium; experiment: Transendothelial electrical resistance (TER) across bovine pulmonary artery endothelium; type: cell-based; conditions: VEGF 100 ng/ml, Sph 1-P 1 μM, HGF 20 ng/ml
Experimental: Bovine pulmonary artery endothelial cells were purchased from the American Type Culture Collection (ATCC®, Rockville, Md.) and utilized at passage 19-24. Cells were maintained in Medium 199 (Life Technologies, Rockville, Md.) supplemented with 20% (v/v) colostrum-free bovine serum (CFBS) (Irvine Scientific, Santa Ana, Calif.), 15 μg/ml endothelial cell growth supplement (Upstate Biotechnology, Lake Placid, N.Y.), 1% antibiotic and antimycotic, and 0.1 mM non-essential amino acids (Life Technologies). Human pulmonary artery endothelial cells were purchased from Clonetics (Walkersville, Md.), cultured in EBM-2 complete medium (Clonetics) and utilized at passage 5-10. Human alveolar epithelial cells (A549) were purchased from ATCC® and cultured in the same medium as the bovine endothelial cells, except that the endothelial cell growth supplement was omitted. All cells were maintained at 37° C. in a humidified atmosphere of 5% CO2 and 95% air.
Electrical resistance of EC monolayers was measured using electrical cell impedance sensor system (Applied Biophysics Inc., Troy, N.Y.) as described in Garcia, J. G. N. et al. (2000) J. Appl. Physiol. 89:2333-2343. Cells grown on gold microelectrodes (10^−3 cm^2) in polycarbonate wells act as insulating particles, and the resistance across the monolayers (transendothelial electrical resistance, or TER) is measured in real time. As cells adhere on the microelectrode and intercellular cell contacts are formed or in response to agents which increase junctional integrity, the TER increases (Garcia, J. G. N. et al. (2001) J. Clin. Invest. 108:689-711). In contrast, cell retraction, rounding, or loss of adhesion is reflected by decreases in TER (Garcia, J. G. N. et al. (2000) J. Appl. Physiol. 89:2333-2343). These measurements provide a highly sensitive biophysical assay that indicates the state of cell shape, focal adhesion, and endothelial barrier function (Giaever, I. and Keese, C. R. (1993) Nature 366:591-592; Tiruppathi, C. et al. (1992) Proc. Natl. Acad. Sci. USA 89:7919-7923). All electrical resistance data are presented as normalized values. Briefly, current was applied across the electrodes by a 4000 Hz AC voltage source with an amplitude of 1 V in series with a 1 MΩ resistance to approximate a constant current source (−1 μA). The small gold electrode and the larger counter electrode (1 cm^2) were connected to a phase-sensitive lock-in amplifier (5301A; EG&G Instruments Corp, Princeton, N.J.) with a built in differential preamplifier (5316A; EG&G Instruments Corp.). The in-phase and out-of-phase voltages between the electrodes were monitored in real time with the lock-in amplifier and converted to scalar measurements of transendothelial impedance, of which resistance was the primary focus. […] For some experiments, total TER was vectorially resolved into components reflecting resistance to current flow beneath the cell layer (α) and resistance to current flow between adjacent cells (Rb) as described in Garcia et al. (2000) supra utilizing the method of Giaiver and Keese which models the endothelial monolayer mathematically (Giaever, I. and Keese, C. R. (1993) Nature 366:591-592). Thus, changes in α reflect alterations in the net state of cell-matrix adhesion, whereas changes in Rb reflect alterations in the integrity of cell-cell adhesion. TER values from each microelectrode were pooled at discrete time points and plotted versus time as the mean±standard error of the mean (Garcia et al. (2000) supra).

PKCα = PKCα activation (phospho-PKC immunoreactivity, membrane translocation); type: cell-based, human; conditions: after HGF
Experimental: Endothelial cell monolayers grown to confluence in 12-well plates and challenged with HGF were lysed with 100 μl of 2×SDS sample buffer, and cell lysates were transferred into microcentrifuge tubes and boiled for 5 min. After a brief spin, proteins from 10 μl cell lysates were separated on 12% SDS-PAGE and transferred to nitrocellulose (Schleicher & Schuell, Keene, N.H.) (30V, 18 h). After blocking with PBST (PBS with 0.1% Tween 20) containing 5% non-fat milk for 1 hr, nitrocellulose blots were reacted with primary antibodies diluted in PBST containing 5% BSA for 1 hr, washed with PBST (3×10 min), incubated with peroxidase-conjugated secondary antibodies (goat anti-rabbit IgG, 1:10,000 dilution, Sigma; or goat anti-mouse IgG, 1:10,000 dilution, Bio-Rad Labs, Richmond, Calif.) diluted in PBST with 5% non-fat milk for 1 hr and again washed with PBST (3×10 min). Finally, immunoreactive proteins were detected using ECL. The relative intensities of the protein bands were quantified by scanning densitometry.
Endothelial cells were fractionated into cytosolic, membrane, and nuclear/cytoskeleton fractions as described in Borbiev, T. et al. (2001) Am. J. Physiol. Lung Cell. Mol. Physiol. 280:L983-L990. […]

[2] = vs vehicle control, ±SEM, thrombin 100 μM

Substance: HGF: heparin-binding glycoprotein, multifunctional cytokine, ligand of c-Met; purchased from R&D Systems
- TER response in words ([1]; thrombin, 10-60 min): brisk and sustained increase in TER
- changes in TER 30 min [1, 2]: +35 ± 5%
- changes in TER 60 min [1, 2]: +35 ± 4%
- changes in TER 10 min ([1]; vs vehicle control, ±SEM, thrombin 100 μM, (+) increased, (−) decreased): +25 ± 3%
- time at which PKCα activation is detectable (phospho-PKC immunoreactivity) (PKCα): 15 min
- time of PKCα translocation to the membrane fraction (PKCα): 5 min
